Results on 18 molecules are retold here after US9676773B2, “Azaindole derivative” (TAIHO PHARMACEUTICAL CO., LTD., priority 2014, dated 2017).

The target of test [1] is T1, purified recombinant human JAK2 protein (Homo sapiens, UniProt O60674).
T1 construct: purchased Carna Biosciences, Inc
As to the kind of experiment: Measurement of JAK2 kinase-inhibitory activity. The class given is biochemical. The following applies: FL-Peptide 22 1 μM, ATP 10 μM, 25° C., 80 minutes. The procedure:
2) Measurement of JAK2 Kinase-Inhibitory Activity
The activity of the compound of the present invention to inhibit the activity of JAK2 kinase was measured.
Among materials for the measurement of this inhibitory activity, a substrate peptide and a kinase protein were acquired as follows. As such a substrate peptide, FL-Peptide 22 (Perkin Elmer Corp.) was purchased. As such a kinase protein, a purified recombinant human JAK2 protein (Carna Biosciences, Inc.) was purchased.
The method for measuring the inhibitory activity is as follows. First, a serial dilution of the compound of the present invention was prepared by the same method as that described in the above section regarding JAK1. This serial dilution solution (the final concentration of DMSO upon a kinase reaction: 5.0%) or DMSO (final concentration: 5.0%) was mixed with a solution containing the substrate peptide (final concentration: 1 μM), magnesium chloride (final concentration: 10 mM) and ATP (final concentration: 10 μM) in a buffer for kinase reaction (15 mM Tris (pH 7.5), 2 mM dithiothreitol and 0.01% Tween 20). Thereafter, a JAK2 protein was further added to the mixed solution, and the obtained mixture was then incubated at 25° C. for 80 minutes to carry out a kinase reaction. To the reaction solution, EDTA was added to a final concentration of 30 mM, so as to terminate the reaction. After termination of the reaction, the measurement and the data analysis were carried out by the same methods as those described in the above section regarding JAK1.

In another test the test system is human PBMC. As to the kind of experiment: IL-2-dependent growth of human peripheral blood mononuclear cells (PBMC). The class given is cell-based. The following applies: PHA-M pre-culture 3 days, IL-2 2 ng/mL, 2 days, CellTiter-Glo, read-out: PSMC IC50. The procedure:
The activity of the compound of the present invention to inhibit the IL-2-dependent growth reaction of human PBMC, which is caused by JAK3, was measured (Arthritis Rheum. 2010; 62(8): 2283-93).
With a medium containing 10 μg/mL PHA-M (Sigma) (which is RPI-1640 (Sigma) containing 10% human serum type AB (MP Biomedicals)), human PBMC (C.T.L.) (cell density: 1×10^6 cells/mL) was cultured at 37° C. in a culture vessel containing 5% carbon dioxide for 3 days. Thereafter, the culture was washed with RPMI-1640 four times, and a medium (RPMI-1640 containing 10% human serum type AB) was then added to the resultant culture to prepare a cell suspension. The cells (1×10^4 cells per well) and the serially diluted compound of the present invention were added to each well of a 96-well U-bottom microplate, and thus obtained mixture was then cultured at 37° C. in a culture vessel containing 5% carbon dioxide for 30 minutes. After completion of the culture, recombinant human IL-2 (Peprotech) was added to the culture to a final concentration of 2 ng/mL, and the obtained mixture was then stirred at 37° C. in a culture vessel containing 5% carbon dioxide for 2 days (1×10^4 cells/100 μl/each well). After completion of the culture, the resultant was left at a room temperature for 30 minutes, and 100 μl of CellTiter-Glo Luminescent Cell Viability Assay (Promega) was then added to the resultant, followed by stirring it. Thereafter, the reaction mixture was left for 10 minutes, and the amount of a luminescence derived from living cells in each well was then measured with a microplate reader (TECAN). The inhibition rate of the compound to the cell growth caused by IL-2 stimulation was calculated, and the concentration of the compound capable of inhibiting 50% of the cell growth was defined as an […] value (nM).
In general terms: ATP-based viability assays read luminescence as a measure of living cells.

Usually IC50 stands for the concentration that inhibits the measured activity by half.

The structures appear in SMILES notation.

T1 sequence (O60674 whole entry): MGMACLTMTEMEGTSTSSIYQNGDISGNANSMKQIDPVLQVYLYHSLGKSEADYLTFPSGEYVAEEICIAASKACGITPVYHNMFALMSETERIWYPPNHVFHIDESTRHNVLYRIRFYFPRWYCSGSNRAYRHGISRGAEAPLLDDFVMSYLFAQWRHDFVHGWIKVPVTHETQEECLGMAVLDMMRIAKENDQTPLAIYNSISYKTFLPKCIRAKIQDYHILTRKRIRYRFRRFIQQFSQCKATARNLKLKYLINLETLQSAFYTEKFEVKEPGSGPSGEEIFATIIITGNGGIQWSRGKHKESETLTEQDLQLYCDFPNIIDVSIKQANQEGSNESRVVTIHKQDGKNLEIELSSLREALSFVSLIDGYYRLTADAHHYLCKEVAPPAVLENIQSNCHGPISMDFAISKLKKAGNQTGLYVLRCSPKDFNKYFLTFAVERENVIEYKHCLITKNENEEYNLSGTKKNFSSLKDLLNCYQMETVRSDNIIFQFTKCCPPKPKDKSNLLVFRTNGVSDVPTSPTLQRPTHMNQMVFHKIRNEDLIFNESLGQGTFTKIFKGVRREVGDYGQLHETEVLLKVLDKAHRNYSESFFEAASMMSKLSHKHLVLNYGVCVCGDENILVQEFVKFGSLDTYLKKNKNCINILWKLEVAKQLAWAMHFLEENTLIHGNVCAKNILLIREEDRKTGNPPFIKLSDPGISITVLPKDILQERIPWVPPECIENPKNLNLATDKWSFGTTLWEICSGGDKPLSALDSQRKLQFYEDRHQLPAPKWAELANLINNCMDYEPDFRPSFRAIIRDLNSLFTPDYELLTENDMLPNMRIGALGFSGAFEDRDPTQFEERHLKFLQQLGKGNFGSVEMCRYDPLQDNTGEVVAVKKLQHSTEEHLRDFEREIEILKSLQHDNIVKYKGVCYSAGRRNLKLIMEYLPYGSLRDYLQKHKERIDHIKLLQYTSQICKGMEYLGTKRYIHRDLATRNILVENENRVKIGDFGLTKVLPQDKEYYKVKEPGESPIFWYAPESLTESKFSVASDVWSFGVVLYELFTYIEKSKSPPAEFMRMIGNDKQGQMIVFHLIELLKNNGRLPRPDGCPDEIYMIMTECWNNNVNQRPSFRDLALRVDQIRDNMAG

In the case of `C1=C(c2ccnc3[nH]ccc23)CCCC1` [Comparative Example 1, reference compound], the IC50 in test [1] was 450 nM; in the test on human PBMC it was > 3000 nM.

On to `C1=C(c2ccnc3[nH]ccc23)CCC1` [Comparative Example 2, 4-(Cyclopent-1-en-1-yl)-1H-pyrrolo[2,3-b]pyridine, reference compound], for which the results for the IC50 (in test [1]; with human PBMC) were 540 nM and > 3000 nM, respectively.

Take `Cc1nc(-c2c[nH]c3ncc(-c4ccccc4)cc23)cs1` [Comparative Example 3, 2-Methyl-4-(5-phenyl-1H-pyrrolo[2,3-b]pyridin-3-yl)thiazole, reference compound]: the IC50 in test [1] was 1600 nM; in the test with human PBMC, > 3000 nM.

As for `C=CC(=O)NC1CCC=C(c2ccnc3[nH]cc(-c4ccccc4)c23)C1` (stereo not drawn) [Compound 1, N-(3-(3-Phenyl-1H-pyrrolo[2,3-b]pyridin-4-yl)cyclohex-3-en-1-yl)acrylamide], the results for the IC50 (in test [1]; with human PBMC) were 450 nM and 216 nM, respectively.

With `C=CC(=O)NC1CCC=C(c2ccnc3[nH]cc(-c4cn[nH]c4)c23)C1` (stereo not drawn) [Compound 3, N-(3-(3-(1H-Pyrazol-4-yl)-1H-pyrrolo[2,3-b]pyridin-4-yl)cyclohex-3-en-1-yl)acrylamide], the IC50 in test [1] came out at 570 nM; with human PBMC it was 182 nM.

As to `C=CC(=O)NC1CCC=C(c2ccnc3[nH]cc(-c4cccnc4OC)c23)C1` (stereo not drawn) [Compound 6, N-(3-(3-(2-Methoxypyridin-3-yl)-1H-pyrrolo[2,3-b]pyridin-4-yl)cyclohex-3-en-1-yl)acrylamide], the values for the IC50 (in test [1]; in the test on human PBMC) were 600 nM and 181 nM, respectively.

Consider `C=CC(=O)NC1CCC=C(c2ccnc3[nH]cc(-c4ccc(CO)o4)c23)C1` (stereo not drawn) [Compound 10, N-(3-(3-(5-(Hydroxymethyl)furan-2-yl)-1H-pyrrolo[2,3-b]pyridin-4-yl)cyclohex-3-en-1-yl)acrylamide], for which the values for the IC50 (in test [1]; with human PBMC) were 250 nM and 136 nM, respectively.

Turning to `C=CC(=O)NC1CCC=C(c2ccnc3[nH]cc(-c4ccco4)c23)C1` (stereo not drawn) [Compound 12, N-(3-(3-(Furan-2-yl)-1H-pyrrolo[2,3-b]pyridin-4-yl)cyclohex-3-en-1-yl)acrylamide], the IC50 in test [1] is 500 nM; with human PBMC it was 123 nM.

In the case of `C=CC(=O)NC1CCC=C(c2ccnc3[nH]cc(-c4cc(CO)co4)c23)C1` (stereo not drawn) [Compound 14, N-(3-(3-(4-(Hydroxymethyl)furan-2-yl)-1H-pyrrolo[2,3-b]pyridin-4-yl)cyclohex-3-en-1-yl)acrylamide], the IC50 is 590 nM in test [1] and 114 nM with human PBMC.

`C=CC(=O)NC1CCC=C(c2ccnc3[nH]cc(C4=CCOC4)c23)C1` (stereo not drawn) [Compound 34, N-(3-(3-(2,5-Dihydrofuran-3-yl)-1H-pyrrolo[2,3-b]pyridin-4-yl)cyclohex-3-en-1-yl)acrylamide]: the values for the IC50 (in test [1]; in the test on human PBMC) were 970 nM and 82 nM, respectively.

As to `C=CC(=O)NC1CCC=C(c2ccnc3[nH]cc(-c4ccc(F)nc4)c23)C1` (stereo not drawn) [Compound 37, N-(3-(3-(6-Fluoropyridin-3-yl)-1H-pyrrolo[2,3-b]pyridin-4-yl)cyclohex-3-en-1-yl)acrylamide], the figures for the IC50 (in test [1]; in the test on human PBMC) were 2400 nM and 159 nM, respectively.

`C=CC(=O)NC1CCC=C(c2ccnc3[nH]cc(-c4cnco4)c23)C1` (stereo not drawn) [Compound 48, N-(3-(3-(Oxazol-5-yl)-1H-pyrrolo[2,3-b]pyridin-4-yl)cyclohex-3-en-1-yl)acrylamide]: the IC50 was found to be 710 nM in test [1] and 114 nM in the test on human PBMC.

With `C=CC(=O)NC1CCC=C(c2ccnc3[nH]cc(-c4nnco4)c23)C1` (stereo not drawn) [Compound 49, N-(3-(3-(1,3,4-Oxadiazol-2-yl)-1H-pyrrolo[2,3-b]pyridin-4-yl)cyclohex-3-en-1-yl)acrylamide], the IC50 in test [1] was 980 nM; in the test on human PBMC it was 122 nM.

`C=CC(=O)NC1CCC=C(c2ccnc3[nH]cc(-c4nn(C)c(=O)o4)c23)C1` (stereo not drawn) [Compound 53, N-(3-(3-(4-Methyl-5-oxo-4,5-dihydro-1,3,4-oxadiazol-2-yl)-1H-pyrrolo[2,3-b]pyridin-4-yl)cyclohex-3-en-1-yl)acrylamide]: the 50% inhibitory concentration (IC50) in test [1] was 990 nM; in the test with human PBMC, 162 nM.

With `C=CC(=O)NC1CCC=C(c2ccnc3[nH]cc(-c4nncs4)c23)C1` (stereo not drawn) [Compound 54], the figures for the IC50 (in test [1]; with human PBMC) were 2100 nM and 170 nM, respectively.

With `C=CC(=O)N[C@H]1CCC=C(c2ccnc3[nH]cc(-c4nnco4)c23)C1` [Compound 55, (S)—N-(3-(3-(1,3,4-Oxadiazol-2-yl)-1H-pyrrolo[2,3-b]pyridin-4-yl)cyclohex-3-en-1-yl)acrylamide], the concentration for half-maximal inhibition (IC50) in test [1] came to 260 nM; with human PBMC it was 34 nM.

Turning to `C=CC(=O)NC1CC=C(c2ccnc3[nH]cc(-c4nnco4)c23)C1` (stereo not drawn) [Compound 57, N-(3-(3-(1,3,4-Oxadiazol-2-yl)-1H-pyrrolo[2,3-b]pyridin-4-yl)cyclopent-3-en-1-yl)acrylamide], the IC50 was 880 nM in test [1] and 304 nM in the test on human PBMC.

With `C=CC(=O)N[C@H]1CCC=C(c2ccnc3[nH]cc(-c4ccno4)c23)C1` [Compound 59], the IC50 in test [1] was 430 nM; in the test on human PBMC, 55 nM.
